Reference: the supplement of paper PMC10307832

Legend:
Assay in all cases: relative viability (nuclei count vs DMSO), 5 days (fraction); higher = more cells survive
[1] = compound: CC[C@H](CO)Nc1nc(NCc2ccccc2)c2ncn(C(C)C)c2n1 [Seliciclib] + N=C(N)NC(=N)NCCc1ccccc1 [Phenformin] (partner 250 µM)
In short: (§1)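 Lung cancer cell lines in 1536-well plates got either a single drug or a fixed anchor-drug dose together with five library-drug doses (not always all listed) in √10 steps, by pin tool, on the day after seeding. Nuclei were counted after 5 days, and relative viability is the treated-to-vehicle ratio of nuclei counts. Values are medians of duplicate plates.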

[2] = compound: CC[C@H](CO)Nc1nc(NCc2ccccc2)c2ncn(C(C)C)c2n1 [Seliciclib] + CC(=O)Nc1cccc(-n2c(=O)n(C3CC3)c(=O)c3c(Nc4ccc(I)cc4F)n(C)c(=O)c(C)c32)c1 [Trametinib] (partner 0.02 µM)
In short: as §1

[3] = compound: CC[C@H](CO)Nc1nc(NCc2ccccc2)c2ncn(C(C)C)c2n1 [Seliciclib] + COc1cccc2cc(-c3nc([C@H]4CC[C@H](C(=O)O)CC4)n4ncnc(N)c34)[nH]c12 [OSI-027] (partner 0.5 µM)
In short: as §1

[4] = compound: CC[C@H](CO)Nc1nc(NCc2ccccc2)c2ncn(C(C)C)c2n1 [Seliciclib]
In short: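 Five library-drug doses spaced by √10 were pinned onto vehicle-anchored 1536-well plates of lung cancer cell lines that had been kept overnight at 37 °C. Cells went 5 days without medium change, then were fixed, permeabilised and Hoechst-stained together, imaged at 4× and counted by MetaXpress. Viability is the ratio of treated-well to vehicle-well nuclei, taken as a median over plates. Plates required control CV below 25% and at least one doubling.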

Cell Line	relative viability ([1]; first compound 0.08 µM)	relative viability ([1]; first compound 0.253 µM)	relative viability ([1]; first compound 0.8 µM)	relative viability ([1]; first compound 2.53 µM)	relative viability ([1]; first compound 8 µM)	relative viability ([2]; first compound 0.08 µM)	relative viability ([2]; first compound 0.253 µM)	relative viability ([2]; first compound 0.8 µM)	relative viability ([2]; first compound 2.53 µM)	relative viability ([2]; first compound 8 µM)	relative viability ([3]; first compound 0.08 µM)	relative viability ([3]; first compound 0.253 µM)	relative viability ([3]; first compound 0.8 µM)	relative viability ([3]; first compound 2.53 µM)	relative viability ([3]; first compound 8 µM)	relative viability ([4]; 0.08 µM)	relative viability ([4]; 0.253 µM)	relative viability ([4]; 0.8 µM)	relative viability ([4]; 2.53 µM)	relative viability ([4]; 8 µM)
HCC-78	0.706	0.795	0.65	0.536	0.474	0.737	0.94	0.746	0.83	0.513	0.411	0.426	0.358	0.34	0.326	1	1.05	0.91	0.703	0.733
HCC-366	0.618	0.716	0.571	0.62	0.506	0.332	0.253	0.368	0.317	0.239	0.978	0.43	0.825	0.513	0.625	1.01	1.06	0.998	1.03	0.938
HCC-827	0.4	0.422	0.402	0.435	0.351	0.494	0.519	0.525	0.533	0.365	0.844	0.612	0.757	0.801	0.794	1.04	1.07	1.01	1.05	0.907
HOP-62	0.665	0.699	0.75	0.713	0.576	0.377	0.302	0.377	0.418	0.431	0.891	0.705	0.952	0.57	0.777	1.04	1.1	1.08	1	0.94
IA-LM	–	–	–	–	–	–	–	–	–	–	–	–	–	–	–	1.01	1.1	0.919	1	0.819
LC-2-ad	0.552	0.579	0.593	0.368	0.514	0.9	0.976	0.867	0.907	0.79	0.902	0.901	0.827	0.453	0.799	1	1.14	0.973	0.846	0.888
LCLC-97TM1	0.467	0.354	0.493	0.138	0.381	0.244	0.173	0.226	0.178	0.155	0.442	0.424	0.714	0.108	0.182	0.984	1	0.911	0.473	0.651
LCLC-103H	0.393	0.337	0.347	0.308	0.316	0.666	0.711	0.647	0.681	0.682	0.452	0.47	0.456	0.319	0.487	1	0.934	0.929	0.836	0.914
LK-2	0.475	0.415	0.358	0.243	0.274	0.747	0.575	0.69	0.693	0.577	0.225	0.203	0.191	0.175	0.194	0.99	0.737	0.966	0.759	0.69
LOU-NH91	0.609	0.666	0.671	0.589	0.552	–	0.702	0.786	0.745	0.752	0.741	0.693	0.674	0.592	0.644	0.789	0.916	0.919	0.85	0.723
LU99A	0.898	0.937	0.817	0.705	0.714	0.586	0.484	0.5	0.485	0.393	0.286	0.265	0.323	0.221	0.323	0.962	0.836	0.953	0.69	0.775
LXF-289	0.52	0.505	0.501	0.507	0.496	0.65	0.725	0.646	0.661	0.627	0.781	0.667	0.769	0.421	0.762	0.983	1.2	0.972	1.02	0.91
NCI-H23	0.83	0.809	0.784	0.672	0.603	0.428	0.343	0.406	0.297	0.308	0.645	0.408	0.652	0.267	0.505	1.01	0.81	0.991	0.449	0.565
NCI-H322M	0.861	0.967	0.693	0.673	0.536	0.536	0.487	0.495	0.473	0.399	0.561	0.482	0.516	0.348	0.43	0.932	1.09	0.798	0.799	0.753
NCI-H358	0.347	0.392	0.248	0.241	0.209	0.137	0.124	0.143	0.104	0.0859	0.79	0.501	0.652	0.58	0.448	0.932	0.922	0.785	0.621	0.633
NCI-H1299	–	–	–	–	–	–	–	–	–	–	–	–	–	–	–	0.959	1.12	1.03	1.02	1.03
NCI-H1563	0.754	0.63	0.651	0.626	0.664	–	–	–	–	–	0.766	0.709	0.725	0.747	0.792	1.03	0.872	1.06	0.833	0.897
NCI-H1648	–	–	–	–	–	0.5	0.501	0.478	0.406	0.394	0.273	0.313	0.281	0.251	0.259	0.922	1.11	1.18	0.721	0.704
NCI-H1703	–	–	–	–	–	–	–	–	–	–	–	–	–	–	–	0.947	0.905	1.04	0.951	0.965
